In ChEMBL document CHEMBL1139402, “Design and SAR of new substituted purines bearing aryl groups at N9 position as HIV-1 Tat-TAR interaction inhibitors” (Bioorg Med Chem, 2008):

Experiments:
[1] = Cytotoxicity against human CEM cells assessed as inhibition of uninfected cells proliferation; format: cell-based; conditions: CEM (CCRF-CEM) cells, read-out: TC50 (the source's name)
[2] = system: Simian immunodeficiency virus; experiment: Antiviral activity against SIV-induced syncytium in human CEM cells assessed as inhibition of virus-induced cytopathogenicity after 5 days; format: functional, organism-based; conditions: CCRF-CEM, 120 h
[3] = Selectivity index, ratio of TC50 for human CEM cells to EC50 for SIV-induced syncytium; parameters: species or system CCRF-CEM
[4] = system: Human immunodeficiency virus 1; experiment: Inhibition of HIV1 Tat-TAR interaction-mediated transactivation in human 293T cells assessed as CAT gene expression at 30 uM after 24 hrs by ELISA; format: functional; conditions: Human immunodeficiency virus 1, HEK-293T

SMILES	CC50 [1] [µM]	EC50 [2] [µM]	Ratio [3]	inhibition at 30 µM [4] [%]
CCN(CC)c1nc(C)c2nc(SCC(=O)NCCNC(=N)N)n(CCn3cncn3)c2n1	> 100	12.4	>8.1	–
CCN(CC)c1nc(C)c2nc(SCC(=O)NCCNC(=N)N)n(CCCn3cncn3)c2n1	> 100	5.4	>18.5	48.2
CCN(CC)c1nc(C)c2nc(SCC(=O)NCCCNC(=N)N)n(CCCn3cncn3)c2n1	> 100	5.8	>17.2	–
CCN(CC)c1nc(C)c2nc(SCC(=O)NCCCNC(=N)N)n(CCn3cncn3)c2n1	> 100	7.1	>14.1	–
CCN(CC)c1nc(C)c2nc(SCC(=O)NCCCNC(=N)N)n(CCNc3ncnc4[nH]cnc34)c2n1	> 100	13	>7.7	58.6
CCN(CC)c1nc(C)c2nc(SCC(=O)NCCNC(=N)N)n(CCNc3nc(N)nc4[nH]cnc34)c2n1	> 100	6.1	>16.4	–
CCN(CC)c1nc(C)c2nc(SCC(=O)NCCCNC(=N)N)n(CCc3c[nH]c4ccccc34)c2n1	29.1	5.6	5.2	–
CCN(CC)c1nc(C)c2nc(SCC(=O)NCCNC(=N)N)n(CCCN3CCOCC3)c2n1	> 100	18.9	>5.3	81.8
CCN(CC)c1nc(C)c2nc(SCC(=O)NCCCNC(=N)N)n(CCCN3CCOCC3)c2n1	> 100	11.2	>8.9	48.2
CCN(CC)c1nc(C)c2nc(SCC(=O)NCCN)n(CCc3c[nH]c4ccccc34)c2n1	6.5	1.6	4.1	–
CCN(CC)c1nc(C)c2nc(SCC(=O)NCCCN)n(CCc3c[nH]c4ccccc34)c2n1	10.2	4.2	2.4	–
CCN(CC)c1nc(C)c2nc(SCC(=O)NCCNC(=N)N)n(CCc3c[nH]c4ccccc34)c2n1	29.5	7.9	3.7	–
CCN(CC)c1nc(C)c2nc(SCC(=O)NCCCN)n(CCNc3ncnc4[nH]cnc34)c2n1	> 100	5.5	>18.2	52.3
CCN(CC)c1nc(C)c2nc(SCC(=O)NCCN)n(CCNc3nc(N)nc4[nH]cnc34)c2n1	> 100	20	>5	–
CCN(CC)c1nc(C)c2nc(SCC(=O)NCCCN)n(CCNc3nc(N)nc4[nH]cnc34)c2n1	> 100	6.5	>15.4	–
CCN(CC)c1nc(C)c2nc(SCC(=O)NCCNC(=N)N)n(CCNc3ncnc4[nH]cnc34)c2n1	92.7	7.8	11.9	48.2
CCN(CC)c1nc(C)c2nc(SCC(=O)NCCCNC(=N)N)n(CCNc3nc(N)nc4[nH]cnc34)c2n1	> 100	8.3	>12	–
CCN(CC)c1nc(C)c2nc(SCC(=O)NCCN)n(CCn3cncn3)c2n1	> 100	13.8	>7.2	–
CCN(CC)c1nc(C)c2nc(SCC(=O)NCCCN)n(CCn3cncn3)c2n1	> 100	11.5	>8.7	–
CCN(CC)c1nc(C)c2nc(SCC(=O)NCCN)n(CCCn3cncn3)c2n1	> 100	6.9	>14.5	48.2
CCN(CC)c1nc(C)c2nc(SCC(=O)NCCN)n(CCCN3CCOCC3)c2n1	64.8	12.4	5.2	80.4
CCN(CC)c1nc(C)c2nc(SCC(=O)NCCCN)n(CCCn3cncn3)c2n1	31.7	8.9	3.6	–
CCN(CC)c1nc(C)c2nc(SCC(=O)NCCN)n(CCNc3ncnc4[nH]cnc34)c2n1	> 100	2.5	>40	48.2
CCN(CC)c1nc(C)c2nc(SCC(=O)NCCCN)n(CCCN3CCOCC3)c2n1	87.5	11.8	7.4	83
